Data set [1] has as its target T1, F508del CFTR (Homo sapiens, UniProt P13569, DEL508-508). As to the kind of experiment: CFTR-dependent trans-epithelial conductance by TEER in F508del-CFBE pre-incubated with Vx-809. It counts as cell-based. Also on record: expressed in transfected cells; host or cells: CFBE41o- human bronchial epithelial cells, lentiviral transduction (F508del-CFBE). The conditions noted are these: for CFTR conductance: 10 μM peptide + 20 μM FSK without GEN, 10 min, pre-incubated 24 h with 1 μM Vx-809. On the procedure: In parallel, to evaluate CFTR activation, the same saline solution was used. After measurement of basal TEER, 20 μM FSK+50 μM GEN as positive control, or FSK+ peptides at the desired concentration were added on the epithelium apical side. Finally, 30 μM PPQ102, a specific inhibitor of CFTR, was added on the epithelium apical side. After each addition, we waited ten minutes at 37° C. before measurement. From the values of TEER measured before and after CFTR inhibition, we calculated the CFTR-dependent trans-epithelial conductance for each condition [Sondo E, Falchi F, Caci E, Ferrera L, Giacomini E, Pesce E, Tomati V, Mandrup Bertozzi S, Goldoni L, Armirotti A, Ravazzolo R, Cavalli A, Pedemonte N (2018) Pharmacological Inhibition of the Ubiquitin Ligase RNF5 Rescues F508del-CFTR in Cystic Fibrosis Airway Epithelia. Cell Chem Biol 25, 891-905 e898].
Subsequently, was investigated the ability of Esc peptides to act as potentiators of mutated CFTR, by promoting its phosphorylation state or its channel opening time, mimicking the activity of forskolin (FSK) or genistein (GEN), respectively, which are both needed for full activation of CFTR [Sondo E, Falchi F, Caci E, Ferrera L, Giacomini E, Pesce E, Tomati V, Mandrup Bertozzi S, Goldoni L, Armirotti A, Ravazzolo R, Cavalli A, Pedemonte N (2018) Pharmacological Inhibition of the Ubiquitin Ligase RNF5 Rescues F508del-CFTR in Cystic Fibrosis Airway Epithelia. Cell Chem Biol 25, 891-905 e898]. Noteworthy, the adenylate cyclase activator FSK [Ma T, Thiagarajah J R, Yang H, Sonawane N D, Folli C, Galietta L J, Verkman A S (2002) Thiazolidinone CFTR inhibitor identified by high-throughput screening blocks cholera toxin-induced intestinal fluid secretion. J Clin Invest 110, 1651-1658] is reported to trigger an increase of intracellular cAMP favouring CFTR phosphorylation by cellular protein kinases e.g. PKA, while the isoflavone GEN accelerates channel opening, by promoting NBD dimerization, and slows channel closure by stabilizing the NBD1:NBD2 dimer conformation [Schmidt A, Hughes L K, Cai Z, Mendes F, Li H, Sheppard D N, Amaral M D (2008) Prolonged treatment of cells with genistein modulates the expression and function of the cystic fibrosis transmembrane conductance regulator. Br J Pharmacol 153, 1311-1323]. The CFTR-mediated conductance of bronchial epithelium was evaluated by TEER, after 10 min, 1 h and 2 h treatment of F508del-CFBE (pre-incubated with the corrector Vx-809 in order to trigger the mutated protein to the apical membrane) with Esc(1-21)-1c (10 μM), in the absence of FSK or GEN. […] This clearly denoted that the peptide was able to potentiate CFTR activity, likely by prolonging its channel opening time.
The conductance was then measured on F508del-CFBE. […]

Data set [2] concerns the target T1, F508del CFTR. The experiment in a line: Trans-epithelial electrical conductance in del508-FRT cells, position-17 analogs. It counts as cell-based. Also on record: expressed in transfected cells. The conditions noted are these: 10 min treatment with 10 μM peptide tested as potentiator (instead of genistein). An excerpt:
To understand whether the potentiator effect of Esc peptides was specifically dependent on their sequence and/or correlated to the presence of Ser17, eventually upon its phosphorylation by PKA, a series of peptide analogs bearing different L/D amino acids at position 17 were synthesized, the analogs are presented in the following table 1. The analogs were used to measure the trans-epithelial electrical conductance in […] Rat Thyroid cells, which is a cell line frequently used for functional studies and stably expressing F508del-CFTR (del508-FRT). Among them, compounds 3 and 5 carrying L and D-Alanine, respectively; compound 6 carrying the achiral Glycine17; compounds 7 and 8, with another potential target amino acid of protein kinases i.e. D and L-threonine respectively; and compounds 9 ad 10 where Ser17 was replaced by a residue with a bulky side chain, i.e. D and L tryptophan, respectively. Furthermore, an analog with L-phosphoserine at position 17 were included for comparison.

A further data set has as its system wt-CFBE. The conditions noted are these: compared with Esc(1-21); cited from earlier work.
In a further data set the test system is P. aeruginosa biofilm. Conditions: compared with Esc(1-21); cited from earlier work.
For another data set, the system named is F508del-CFBE. The conditions noted are these: compared with Esc(1-21); cited from earlier work.
The next data set concerns Pseudomonas. Conditions: single intra-tracheal instillation, cited from earlier work.
Data set [3] concerns the target T1, F508del CFTR. The experiment in a line: Ussing chamber short-circuit current on bronchial epithelia from homozygous F508del patient. The data set is classed as cell-based. Also on record: Ussing chamber experiments on bronchial epithelia from homozygous F508del patient; host or cells: primary human bronchial epithelial cells from a CF patient homozygous for F508del. Conditions: epithelia incubated 24 h with 1 μM Vx-809, then amiloride, cpt-cAMP and potentiator. On the procedure:
Snapwell inserts (Corning 3801) carrying differentiated bronchial epithelia were mounted in a vertical diffusion chamber, resembling a Ussing chamber with internal fluid circulation. Both apical and basolateral chambers were filled with 5 ml of saline solution. The short-circuit current was recorded with a PowerLab 4/25 (ADInstruments) analog-to-digital converter connected to a computer. Epithelia were incubated for 24 h with 1 μM Vx-809 or 0.1% DMSO. Afterwards, 10 μM amiloride was added; subsequently, CFTR channels were activated by phosphorylation upon addition of 100 μM cpt-cAMP (permeable cAMP analog). Then, 1 μM of the potentiator Vx-770 as well as each Esc peptide was added on the epithelium apical side, as indicated. Finally, 10 μM Inh172, a specific inhibitor of CFTR was added to the epithelium apical side. Measurements were done after 5 min from the addition of each substance. In parallel, epithelia pre-incubated for 24 h with each peptide and then treated with amiloride, cpt-cAMP and Vx-770 were used for comparison.
The CFTR potentiating activity of Esc peptides in primary airway epithelial cells was studied by Ussing chamber experiments on bronchial epithelia from homozygous F508del patient. Epithelia were treated for 24 h with 0.1% DMSO vehicle alone, 1 μM Vx809 or with each Esc peptide. […]

The next data set concerns Pseudomonas aeruginosa. Conditions: cited from earlier work.

Data on five molecules can be found in US12583893B2, “Use of esculentin and its derivatives for use in the treatment of cystic fibrosis” (UNIVERSITÀ DEGLI STUDI DI ROMA LA SAPIENZA, priority 2019, dated 2026).

“Also recorded” adds a separate entry of the source. Square brackets hold non-standard residues; d marks the D form. Ends that are not written are not given here. d(pS) = N[C@H](COP(=O)(O)O)C(=O)O

T1 sequence (P13569 with tags, fused parts or gaps DEL508-508): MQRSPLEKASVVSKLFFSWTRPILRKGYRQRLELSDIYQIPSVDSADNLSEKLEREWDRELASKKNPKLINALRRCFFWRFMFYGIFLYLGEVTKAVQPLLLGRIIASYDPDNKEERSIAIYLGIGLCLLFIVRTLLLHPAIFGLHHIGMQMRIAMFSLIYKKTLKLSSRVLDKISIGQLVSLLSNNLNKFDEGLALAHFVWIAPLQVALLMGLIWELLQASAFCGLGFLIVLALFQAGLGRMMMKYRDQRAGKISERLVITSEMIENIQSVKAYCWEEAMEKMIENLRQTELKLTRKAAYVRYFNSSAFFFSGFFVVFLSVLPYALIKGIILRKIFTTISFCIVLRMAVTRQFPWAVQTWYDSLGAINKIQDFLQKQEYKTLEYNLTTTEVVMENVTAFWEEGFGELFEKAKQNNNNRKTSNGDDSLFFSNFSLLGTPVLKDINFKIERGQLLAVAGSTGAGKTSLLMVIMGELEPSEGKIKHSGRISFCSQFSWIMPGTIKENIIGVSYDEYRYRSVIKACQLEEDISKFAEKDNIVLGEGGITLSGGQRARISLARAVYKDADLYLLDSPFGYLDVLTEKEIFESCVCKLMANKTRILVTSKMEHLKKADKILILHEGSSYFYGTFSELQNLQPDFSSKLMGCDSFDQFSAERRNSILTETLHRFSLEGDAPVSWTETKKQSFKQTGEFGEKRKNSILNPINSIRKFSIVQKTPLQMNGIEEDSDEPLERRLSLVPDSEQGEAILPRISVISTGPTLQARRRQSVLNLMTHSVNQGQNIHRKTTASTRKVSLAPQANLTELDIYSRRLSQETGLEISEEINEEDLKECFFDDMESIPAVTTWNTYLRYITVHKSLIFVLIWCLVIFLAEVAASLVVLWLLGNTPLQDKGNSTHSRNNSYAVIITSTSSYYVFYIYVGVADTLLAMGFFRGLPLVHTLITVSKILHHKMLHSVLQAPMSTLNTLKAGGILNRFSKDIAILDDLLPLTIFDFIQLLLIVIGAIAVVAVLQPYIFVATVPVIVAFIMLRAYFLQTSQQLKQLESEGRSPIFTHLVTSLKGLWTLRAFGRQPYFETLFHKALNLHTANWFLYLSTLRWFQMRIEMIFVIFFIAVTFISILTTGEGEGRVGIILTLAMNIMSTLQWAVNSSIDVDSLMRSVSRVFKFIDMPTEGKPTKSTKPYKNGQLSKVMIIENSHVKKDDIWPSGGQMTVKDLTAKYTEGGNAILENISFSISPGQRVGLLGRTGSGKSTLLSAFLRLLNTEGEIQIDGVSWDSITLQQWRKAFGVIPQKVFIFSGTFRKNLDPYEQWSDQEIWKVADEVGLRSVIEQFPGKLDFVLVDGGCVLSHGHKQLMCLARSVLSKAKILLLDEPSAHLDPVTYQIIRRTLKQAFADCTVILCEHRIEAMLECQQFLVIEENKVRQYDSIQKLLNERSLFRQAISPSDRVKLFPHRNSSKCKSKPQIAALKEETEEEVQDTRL

Turning to temporin A [reference compound], the CFTR conductance entry at F508del CFTR [1] is “no effect on CFTR currents”.

“Gly-Ile-Phe-Ser-Lys-Leu-Ala-Gly-Lys-Lys-Ile-Lys-Asn-dLeu-Leu-Ile-dphosphoSer-Gly-Leu-Lys-Gly-NH2 (GIFSKLAGKKIKN[dL]LI[d(pS)]GLKG-NH2; N-terminus assumed; SMILES CC[C@H](C)[C@H](NC(=O)CN)C(=O)N[C@@H](Cc1ccccc1)C(=O)N[C@@H](CO)C(=O)N[C@@H](CCCCN)C(=O)N[C@@H](CC(C)C)C(=O)N[C@@H](C)C(=O)NCC(=O)N[C@@H](CCCCN)C(=O)N[C@@H](CCCCN)C(=O)N[C@H](C(=O)N[C@@H](CCCCN)C(=O)N[C@@H](CC(N)=O)C(=O)N[C@H](CC(C)C)C(=O)N[C@@H](CC(C)C)C(=O)N[C@H](C(=O)N[C@H](COP(=O)(O)O)C(=O)NCC(=O)N[C@@H](CC(C)C)C(=O)N[C@@H](CCCCN)C(=O)NCC(N)=O)[C@@H](C)CC)[C@@H](C)CC) [compound 2, carrying D-phosphoSer at position 17]”: in the data set with F508del CFTR [2], the “transepithelial conductance (function of F508del-CFTR)” value is “significantly increase; also recorded: higher than that of genistein”.

For the molecule “Gly-Ile-Phe-Ser-Lys-Leu-Ala-Gly-Lys-Lys-Ile-Lys-Asn-dLeu-Leu-Ile-dSer-Gly-Leu-Lys-Gly-NH2 (GIFSKLAGKKIKN[dL]LI[dS]GLKG-NH2) [Esc(1-21)-1c, diastereomer of Esc(1-21) with two D-amino acids]”, the “re-epithelialization of bronchial epithelial cells” value with wt-CFBE and in the data set with F508del-CFBE was “more efficient to induce re-epithelialization” each time. Moreover, the “activity against P. aeruginosa biofilm” value in the data set with P. aeruginosa biofilm is reported as “more active against P. aeruginosa biofilm”. Further, the CFTR conductance entry with F508del CFTR [1] was “significant increase of CFTR conductance”. In addition, the “potentiator activity (CFTR conductance) over time” value with F508del CFTR [1] (10 μM peptide + FSK without GEN, 1 h or 2 h treatment, pre-incubated with Vx-809) is listed as “remain constant up to 2 h”. The “CFTR-mediated conductance (rescue of CFTR activity)” value in the data set with F508del CFTR [1] (10 μM peptide in the absence of FSK, pre-incubated with Vx-809) was “no rescue of CFTR activity”. The “reduction of lung bacterial burden” value in the data set on Pseudomonas (0.1 mg/kg corresponding to 20 μM, compared with Esc(1-21)) was “more potent in reducing lung bacterial burden”. In addition, the “toxicity or inflammatory side events” value in the data set with Pseudomonas (0.1 mg/kg) is recorded as “negligible toxicity or inflammatory side events”.

Consider `CC(C)(C)c1cc(C(C)(C)C)c(NC(=O)c2c[nH]c3ccccc3c2=O)cc1O` [Vx-770], for which, on F508del CFTR [3], the “CFTR-mediated current as potentiator” value is reported as “significant current increase”.

As for “GIFSKLAGKKIKNLLISGLKG-NH2 [Esc(1-21), first 20 amino acids of Esculentin 1a with a glycinamide residue at the C-terminus]”, in the data set on Pseudomonas aeruginosa, the antipseudomonal activity result is “potent antipseudomonal activity”.
